Measurements reported in the supplement of paper PMC10307832.

Tests used:
Assay in all cases: relative viability (nuclei count vs DMSO), 5 days (fraction); higher = more cells survive
CUDC-101 + Lapatinib = compound: C#Cc1cccc(Nc2ncnc3cc(OC)c(OCCCCCCC(=O)NO)cc23)c1 [CUDC-101] + CS(=O)(=O)CCNCc1ccc(-c2ccc3ncnc(Nc4ccc(OCc5cccc(F)c5)c(Cl)c4)c3c2)o1 [Lapatinib] (partner 2 µM)
Method in brief: (§1)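 The day after seeding in 1536-well plates, lung cancer cell lines were treated by pin tool with a single drug, or with a fixed anchor-drug dose together with five library-drug doses (not always all listed) in √10 steps. After 5 days, a combined fix-and-stain solution (final 0.05% Triton X-100, 1% formaldehyde, 1 ug/ml Hoechst) was added. Nuclei counted on 4× images gave relative viability as treated counts over vehicle counts, reported as the median of duplicate plates.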

CUDC-101 + Linsitinib = compound: C#Cc1cccc(Nc2ncnc3cc(OC)c(OCCCCCCC(=O)NO)cc23)c1 [CUDC-101] + C[C@]1(O)C[C@@H](c2nc(-c3ccc4ccc(-c5ccccc5)nc4c3)c3c(N)nccn32)C1 [Linsitinib] (partner 1 µM)
Method in brief: as §1

CUDC-101 + Phenformin = compound: C#Cc1cccc(Nc2ncnc3cc(OC)c(OCCCCCCC(=O)NO)cc23)c1 [CUDC-101] + N=C(N)NC(=N)NCCc1ccccc1 [Phenformin] (partner 250 µM)
Method in brief: as §1

Vandetanib + Vorinostat = compound: COc1cc2/c(=N/c3ccc(Br)cc3F)nc[nH]c2cc1OCC1CCN(C)CC1 [Vandetanib] + O=C(CCCCCCC(=O)Nc1ccccc1)NO [Vorinostat] (partner 1 µM)
Method in brief: as §1

Cell Line | relative viability (CUDC-101 + Lapatinib; first compound 0.01 µM) | relative viability (CUDC-101 + Lapatinib; first compound 0.03162 µM) | relative viability (CUDC-101 + Lapatinib; first compound 0.1 µM) | relative viability (CUDC-101 + Lapatinib; first compound 0.3162 µM) | relative viability (CUDC-101 + Lapatinib; first compound 1 µM) | relative viability (CUDC-101 + Linsitinib; first compound 0.01 µM) | relative viability (CUDC-101 + Linsitinib; first compound 0.03162 µM) | relative viability (CUDC-101 + Linsitinib; first compound 0.1 µM) | relative viability (CUDC-101 + Linsitinib; first compound 0.3162 µM) | relative viability (CUDC-101 + Linsitinib; first compound 1 µM) | relative viability (CUDC-101 + Phenformin; first compound 0.01 µM) | relative viability (CUDC-101 + Phenformin; first compound 0.03162 µM) | relative viability (CUDC-101 + Phenformin; first compound 0.1 µM) | relative viability (CUDC-101 + Phenformin; first compound 0.3162 µM) | relative viability (CUDC-101 + Phenformin; first compound 1 µM) | relative viability (Vandetanib + Vorinostat; first compound 0.02 µM) | relative viability (Vandetanib + Vorinostat; first compound 0.06325 µM) | relative viability (Vandetanib + Vorinostat; first compound 0.2 µM) | relative viability (Vandetanib + Vorinostat; first compound 0.6325 µM) | relative viability (Vandetanib + Vorinostat; first compound 2 µM)
NCI-H2085 | 0.817 | 0.686 | 0.826 | 0.752 | 0.502 | 0.808 | 0.985 | 0.914 | 0.929 | 0.792 | 0.654 | 0.679 | 0.763 | 0.724 | 0.593 | 0.836 | 0.74 | 0.66 | 0.773 | 0.777
NCI-H358 | 0.553 | 0.397 | 0.517 | 0.489 | 0.29 | 0.849 | 0.71 | 0.793 | 0.646 | 0.323 | 0.378 | 0.346 | 0.32 | 0.312 | 0.193 | 0.61 | 0.594 | 0.668 | 0.68 | 0.257
NCI-H2023 | 0.991 | 0.813 | 1.04 | 0.936 | 0.402 | 0.636 | 0.482 | 0.606 | 0.776 | 0.608 | 0.406 | 0.379 | 0.438 | 0.481 | 0.341 | 0.563 | 0.516 | – | 0.561 | 0.489
SW 1573 | 1.05 | 1.15 | 1.23 | 1.2 | 0.813 | 0.867 | 0.919 | 0.915 | 0.955 | 0.637 | 0.407 | 0.356 | 0.484 | 0.371 | 0.304 | 0.635 | 0.674 | – | 0.957 | 0.751
NCI-H3122 | 1.07 | 0.984 | 0.882 | 1.02 | 1.01 | 1.06 | 1.01 | 1.03 | 1.08 | 0.989 | 0.382 | 0.361 | 0.389 | 0.356 | 0.338 | 0.95 | 0.965 | 1.08 | 1.02 | 0.994
NCI-H661 | 0.603 | 0.449 | 0.525 | 0.594 | 0.506 | 0.64 | 0.487 | 0.74 | 0.681 | 0.675 | 0.284 | 0.291 | 0.291 | 0.311 | 0.246 | 0.736 | 0.798 | 0.783 | 0.867 | 0.915
NCI-H596 | 1.04 | 1.04 | 1.03 | 1.08 | 0.982 | 1.08 | 0.923 | 1.03 | 1.13 | 0.882 | 0.886 | 0.729 | 0.751 | 0.772 | 0.698 | 1.37 | 0.562 | 0.657 | 0.666 | 0.693
PC-3 [JPC-3] | 0.419 | 0.462 | 0.443 | 0.364 | 0.32 | 0.987 | 0.91 | 0.789 | 0.667 | 0.383 | 0.484 | 0.486 | 0.362 | 0.402 | 0.351 | 0.808 | 0.739 | 0.492 | 0.449 | 0.348
NCI-H1993 | 0.758 | 0.899 | 1.03 | 0.995 | 0.635 | 0.755 | 0.756 | 0.738 | 0.772 | 0.705 | 0.491 | 0.523 | 0.569 | 0.535 | 0.603 | – | 0.741 | 0.797 | 0.639 | 0.566
NCI-H1355 | 1.04 | 0.825 | 1.05 | 0.895 | 0.679 | 0.887 | 0.761 | 0.822 | 0.739 | 0.645 | 0.453 | 0.431 | 0.453 | 0.47 | 0.387 | 0.603 | 0.565 | 0.671 | 0.624 | 0.649
NCI-H23 | 1.08 | 0.963 | 1.19 | 0.918 | 0.559 | 0.667 | 0.51 | 0.606 | 0.661 | 0.435 | 0.793 | 0.743 | 0.81 | 0.851 | 0.789 | 0.55 | 0.585 | 0.517 | 0.608 | 0.598
CAL-12T | 0.796 | 0.603 | 0.763 | 0.64 | 0.567 | 0.914 | 0.7 | 0.777 | 0.924 | 0.656 | 0.67 | 0.563 | 0.617 | 0.616 | 0.513 | 0.724 | 0.549 | 0.67 | 0.759 | 0.415
ABC-1 | 1.06 | 1.05 | 1.21 | – | 1.26 | 0.816 | 0.778 | 0.601 | 0.567 | 0.303 | 0.256 | 0.256 | 0.212 | 0.247 | 0.186 | 1.05 | 1.11 | 1.02 | 0.96 | 0.773
HCC-44 | 0.923 | 1.07 | 0.947 | 0.979 | 0.812 | 0.549 | 0.617 | 0.678 | 0.675 | 0.555 | 0.163 | 0.185 | 0.22 | 0.185 | 0.139 | 1.11 | 1.09 | 1.21 | 1.1 | 1.15
NCI-H1755 | 1.09 | 1.04 | 1.02 | 1.1 | 0.798 | 1.04 | 0.988 | 0.994 | 0.986 | 0.968 | 0.587 | 0.629 | 0.319 | 0.645 | 0.534 | 0.768 | 0.818 | 0.773 | 0.709 | 0.709
SK-LU-1 | 1.01 | 0.922 | 0.712 | 0.844 | 0.446 | 1.17 | 0.942 | 1.08 | 0.868 | 0.773 | 0.497 | 0.441 | 0.576 | 0.593 | 0.493 | 0.879 | 0.494 | 0.798 | 0.918 | 0.767
